Experimental findings from patent US20240002416A1 (Rheinische-Friedrich-Wilhelms-Universität Bonn, priority 2020, published 2024) are described below.

The target of series [1] is T1, human MRGPRX4-83L (Homo sapiens, UniProt Q96LA9).
T1 construct: host or cells: CHO β-arrestin cells
Nature of the series: β-arrestin assay (CHO β-arrestin ARMS1-ProLink 2 human MRGPRX4 83L). Type of series: cell-based. To be noted: for Emax: efficacy based on maximal effect of 100 nM B-16 (set as 100%), read-out: Emax; for EC50: β-arrestin recruitment, CHO cells, MRGPRX4-83L, read-out: EC50 ± SEM; for IC50: inhibition of the effect of 2.6 μM B-16. The method, boiled down: (§1)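 Two formats: β-galactosidase complementation reporting β-arrestin binding in engineered CHO cells, and calcium mobilization in recombinant astrocytes (83L) or endogenously expressing LN229 cells (83S).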
(Recruitment of arrestin is a read-out of receptor activation apart from second messengers.)

Series [2] deals with T1, human MRGPRX4-83L. Kind of series: Calcium assay (human MRGPRX4 83L), recombinant astrocytes. Type of series: cell-based. The conditions noted are these: for EC50: calcium mobilization, MRGPRX4-83L, read-out: EC50 ± SEM; for Emax: efficacy based on maximal effect of 1 μM B-16 (set as 100%), read-out: Emax. The method, boiled down:
as §1
(Calcium assays in cells follow changes in intracellular calcium, usually with a dye or a luminescent sensor.)

The target in series [3] is T2, MRGPRX4-83S (Homo sapiens, UniProt Q96LA9, L83S). Kind of series: β-arrestin assay (CHO β-arrestin human MRGPRX4-83S). The class given is cell-based. The arrangement: host or cells: CHO β-arrestin cells. To be noted: for Emax: efficacy based on 100 nM B-16 (set as 100%), read-out: Emax; for EC50: β-arrestin recruitment, CHO cells, MRGPRX4-83S, read-out: EC50 ± SEM. The method, boiled down:
as §1

Series [4] has as its target T2, MRGPRX4-83S. Kind of series: Calcium assay (human glioblastoma LN229 cells expressing the MRGPRX4-83S). Type of series: cell-based. Further details: LN229 glioblastoma cells natively expressing the MRGPRX4-83S; endogenous in cells; host or cells: LN229 human glioblastoma cells. The conditions noted are these: for Emax: LN-229, efficacy based on 30 μM H-1 (set as 100%), read-out: Emax; for Emax / EC50: Table 3; for EC50: calcium mobilization, LN229 cells, MRGPRX4-83S, read-out: EC50 ± SEM. The method, then: For β-arrestin recruitment assays, recombinant Chinese hamster ovary (CHO) cells expressing the human MRGPRX4 were used (DiscoverX/Eurofins) which allowed to measure β-galactosidase complementation upon β-arrestin recruitment. For calcium mobilization assays, recombinant astrocytes expressing MRGPX4-83L, or LN229 glioblastoma cells natively expressing the MRGPRX4-83S, were used.
The assays were performed as previously described for other rhodopsin-like GPCRs (Müller, C.E.; 8-Benzamidochromen-4-one-2-carboxylic acids: potent and selective agonists for the orphan G protein-coupled receptor GPR35. J. Med. Chem. 2013, 56:5182-97; Müller, C.E. Molecular Recognition of Agonists and Antagonists by the Nucleotide-Activated G Protein-Coupled P2Y2 Receptor. J. Med. Chem. 2017, 60:8425-8440).

Setting [5] is: Table 1, means of 3-4 experiments.

What is called Emax is the greatest response seen or fitted, relative to the assay's reference. The EC50 is the concentration that produces a half-maximal response. By melting point is commonly meant the temperature, or range, at which the solid turns liquid. What is called IC50 is the concentration that inhibits the measured activity by half.

T2 sequence (Q96LA9 whole entry L83S): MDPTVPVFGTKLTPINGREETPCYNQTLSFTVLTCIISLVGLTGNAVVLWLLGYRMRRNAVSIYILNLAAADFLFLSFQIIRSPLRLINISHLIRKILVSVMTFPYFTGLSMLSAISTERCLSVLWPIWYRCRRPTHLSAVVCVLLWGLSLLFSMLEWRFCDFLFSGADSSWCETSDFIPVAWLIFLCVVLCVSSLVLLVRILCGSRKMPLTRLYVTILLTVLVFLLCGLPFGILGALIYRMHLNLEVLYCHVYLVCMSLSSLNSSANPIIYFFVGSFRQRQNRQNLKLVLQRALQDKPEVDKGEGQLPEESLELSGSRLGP
T1 sequence (Q96LA9 whole entry): as the sequence (Q96LA9 whole entry L83S) above, with S83L counted along it

`C#CCn1c(=O)c2c(nc(CCc3ccccc3I)n2CC)n(CCCCP(=O)(O)O)c1=O` [B-31, (4-(7-Ethyl-8-(2-iodophenethyl)-2,6-dioxo-1-(prop-2-yn-1-yl)-1,2,6,7-tetrahydro-3H-purin-3-yl)butyl)phosphonic acid] gave a melting point of 202 to 204 °C. Besides, in series [1] (Table 4), the Emax is 94% and the EC50 came out at 0.0874 ± 0.0242 µM. Besides, in series [2] (Table 4), the EC50 was 0.000389 ± 9.2e-05 µM and the Emax came out at 103%. In addition, in series [3] (Table 3), the Emax is 89% and the EC50 stood at 9.37e-05 ± 5.23e-05 µM.
`C#CCn1c(=O)c2c(nc(CCc3ccccc3C)n2CC)n(CCCCP(=O)(O)O)c1=O` [B-32, (4-(7-Ethyl-8-(2-methylphenethyl)-2,6-dioxo-1-(prop-2-yn-1-yl)-1,2,6,7-tetrahydro-3H-purin-3-yl)butyl)phosphonic acid] gave a melting point of 152 to 154 °C. In addition, in series [3] (Table 3), the Emax was found to be 97% and the EC50 amounted to 4.24e-05 ± 1.5e-05 µM. In addition, in series [4], the Emax came out at 111% and the EC50 came out at 0.000441 ± 0.000157 µM.
Turning to `C#CCn1c(=O)c2c(nc(CCc3ccc(I)cc3)n2CC2CCCC2)n(CCCCP(=O)(O)O)c1=O` [B-39, (4-(7-(cyclopentylmethyl)-8-(4-iodophenethyl)-2,6-dioxo-1-(prop-2-yn-1-yl)-1,2,6,7-tetrahydro-3H-purin-3-yl)butyl)phosphonic acid], the melting point lay in the range of 119 to 121 °C. In series [3] (Table 3), the Emax stood at 76% and the EC50 worked out at 0.000773 ± 0.000106 µM. In series [4], the IC50 was 0.0161 ± 0.0084 µM, the Emax worked out at 23% and the EC50 amounted to 0.143 ± 0.066 µM.
In turn, `C#CCn1c(=O)c2[nH]c(CCc3ccccc3OC)nc2n(CCCCP(=O)(OCC)OCC)c1=O` [C-1, Diethyl (4-(8-(2-Methoxyphenethyl)-2,6-dioxo-1-(prop-2-yn-1-yl)-1,2,6,7-tetrahydro-3H-purin-3-yl)butyl)phosphonate] gave a melting point of 104 to 106 °C. Besides, the IC50 in series [1] (Table 1) is greater than 10 µM. Also, the EC50 in series [1] (setting [5]) is greater than 10 µM. In addition, the IC50 in series [2] is greater than 10 µM. Besides, the EC50 in series [2] (Table 1) was greater than 10 µM. Besides, in series [3] (Table 2), the EC50 was greater than 10 µM.
Compound `C#CCn1c(=O)c2c(nc(CCc3ccccc3OC)n2C)n(CCCCP(=O)(OCC)OCC)c1=O` [C-2, Diethyl (4-(8-(2-methoxyphenethyl)-7-methyl-2,6-dioxo-1-(prop-2-yn-1-yl)-1,2,6,7-tetrahydro-3H-purin-3-yl)butyl)phosphonate] showed a melting point of 124 to 146 °C. In series [1] (Table 1), this compound yielded an IC50 greater than 10 µM. Further, in series [1] (setting [5]), the EC50 is greater than 10 µM. Besides, in series [2], the IC50 is greater than 10 µM. Besides, in series [2] (Table 1), the EC50 was greater than 10 µM. Also, in series [3] (Table 2), the EC50 is greater than 10 µM.
`C#CCn1c(=O)c2[nH]c(CCc3cccc(Br)c3)nc2n(CCCCP(=O)(OCC)OCC)c1=O` [C-3, Diethyl (4-(8-(3-bromophenethyl)-2,6-dioxo-1-(prop-2-yn-1-yl)-1,2,6,7-tetrahydro-3H-purin-3-yl)butyl)phosphonate] yielded a melting point of 133 to 135 °C. The compound further returned an IC50 in series [1] (Table 1) greater than 10 µM. Besides, the EC50 in series [1] (setting [5]) is greater than 10 µM. Besides, the IC50 in series [2] is greater than 10 µM. The EC50 in series [2] (Table 1) is greater than 10 µM. Also, in series [3] (Table 2), the EC50 was greater than 10 µM.
With `C#CCn1c(=O)c2[nH]c(CCc3cccc(C)c3)nc2n(CCCCP(=O)(OCC)OCC)c1=O` [C-4, Diethyl (4-(8-(3-methylphenethyl)-2,6-dioxo-1-(prop-2-yn-1-yl)-1,2,6,7-tetrahydro-3H-purin-3-yl)butyl)phosphonate], the melting point fell in the range of 111 to 113 °C. In series [1] (Table 1), this compound showed an IC50 greater than 10 µM. In addition, the EC50 in series [1] (setting [5]) was greater than 10 µM. The IC50 in series [2] is greater than 10 µM. For the same compound, the EC50 in series [2] (Table 1) is greater than 10 µM. Besides, the EC50 in series [3] (Table 2) is greater than 10 µM.
`C#CCn1c(=O)c2c(nc(CCc3cccc(C(F)(F)F)c3)n2C)n(CCCCP(=O)(OCC)OCC)c1=O` [C-5, Diethyl (4-(7-methyl-2,6-dioxo-1-(prop-2-yn-1-yl)-8-(3-(trifluoromethyl)phenethyl)-1,2,6,7-tetrahydro-3H-purin-3-yl)butyl)phosphonate]: the melting point lay within 121 to 124 °C. In series [1] (Table 1), this compound gave an IC50 greater than 10 µM. The EC50 in series [1] (setting [5]) was greater than 10 µM. In addition, the IC50 in series [2] was greater than 10 µM. Further, the EC50 in series [2] (Table 1) is greater than 10 µM. The EC50 in series [3] (Table 2) was greater than 10 µM.
As for `CCOP(=O)(CCCCn1c(=O)n(CC2CCC2)c(=O)c2[nH]c(CCc3cccc(OC)c3)nc21)OCC` [C-7, Diethyl (4-(1-(cyclobutylmethyl)-8-(3-methoxyphenethyl)-2,6-dioxo-1,2,6,7-tetrahydro-3H-purin-3-yl)butyl)phosphonate], the melting point fell in the range of 82 to 84 °C. Further, the IC50 in series [1] (Table 1) is greater than 10 µM. The EC50 in series [1] (setting [5]) is greater than 10 µM. For the same compound, the IC50 in series [2] is greater than 10 µM. For the same compound, in series [2] (Table 1), the EC50 was greater than 10 µM. Besides, in series [3] (Table 2), the EC50 was greater than 10 µM.
`CCOP(=O)(CCCCn1c(=O)n(CC)c(=O)c2[nH]c(C3CC3c3ccccc3)nc21)OCC` (stereo not shown) [C-9, Diethyl (4-(1-ethyl-2,6-dioxo-8-(2-phenylcyclopropyl)-1,2,6,7-tetrahydro-3H-purin-3-yl)butyl)phosphonate] displayed a melting point of 124 to 126 °C. The same compound displayed an IC50 in series [1] (Table 1) greater than 10 µM. The EC50 in series [1] (setting [5]) was greater than 10 µM. Moreover, the IC50 in series [2] is greater than 10 µM. Also, in series [2] (Table 1), the EC50 is greater than 10 µM. Moreover, the EC50 in series [3] (Table 2) was greater than 10 µM.
In turn, `C#CCn1c(=O)c2[nH]c(CCc3ccccc3OC)nc2n(CCCCP(=O)(O)OCC)c1=O` [D-2, Ethyl hydrogen (4-(8-(2-methoxyphenethyl)-2,6-dioxo-1-(prop-2-yn-1-yl)-1,2,6,7-tetrahydro-3H-purin-3-yl)butyl)phosphonate] showed a melting point of 172 to 174 °C. The Emax in series [1] (Table 1) was 122%. In addition, the EC50 in series [1] (setting [5]) was found to be 0.113 ± 0.033 µM. Moreover, in series [2] (Table 1), the EC50 came to 3.32 ± 0.61 µM and the Emax came out at 103%. For the same compound, in series [3] (Table 2), the Emax came to 141% and the EC50 stood at 0.000493 ± 0.000104 µM.
Turning to `CCn1c(=O)c2[nH]c(CCc3cccc(OC)c3)nc2n(CCCCS(=O)(=O)O)c1=O` [E-2, 4-(1-Ethyl-8-(3-methoxyphenethyl)-2,6-dioxo-1,2,6,7-tetrahydro-3H-purin-3-yl)butane-1-sulfonic acid], the melting point lay within 179 to 181 °C. The compound further registered an IC50 in series [1] (Table 1) greater than 10 µM. Further, the EC50 in series [1] (setting [5]) was greater than 10 µM. In series [2], the IC50 was greater than 10 µM. For the same compound, in series [2] (Table 1), the EC50 was greater than 10 µM. Also, the EC50 in series [3] (Table 2) was greater than 10 µM.
In turn, `C#CCn1c(=O)c2[nH]c(CCc3ccccc3Br)nc2n(CCCCS(N)(=O)=O)c1=O` [F-1, 4-(8-(2-Bromophenethyl)-2,6-dioxo-1-(prop-2-yn-1-yl)-1,2,6,7-tetrahydro-3H-purin-3-yl)butane-1-sulfonamide] came in with a melting point of 216 to 219 °C. The same compound yielded an IC50 in series [1] (Table 1) greater than 10 µM. In addition, the EC50 in series [1] (setting [5]) was greater than 10 µM. Further, the IC50 in series [2] is greater than 10 µM. Moreover, the 50% effective concentration (EC50) in series [2] (Table 1) was greater than 10 µM. In addition, the EC50 in series [3] (Table 2) is greater than 10 µM.
In the case of `C#CCn1c(=O)c2[nH]c(CCc3ccccc3OC)nc2n(CCCCC(=O)O)c1=O` [G-1, 5-(8-(2-Methoxyphenethyl)-2,6-dioxo-1-(prop-2-yn-1-yl)-1,2,6,7-tetrahydro-3H-purin-3-yl)pentanoic acid], the melting point is 196 to 198 °C. The compound also showed a 50% inhibitory concentration (IC50) in series [1] (Table 1) greater than 10 µM. The EC50 in series [1] (setting [5]) is greater than 10 µM. In addition, the IC50 in series [2] is greater than 10 µM. Moreover, the EC50 in series [2] (Table 1) was greater than 10 µM. The EC50 in series [3] (Table 2) was greater than 10 µM.
As for `O=C(O)CCCCn1c(=O)n(CC2CCC2)c(=O)c2[nH]c(CCc3cccc(C(F)(F)F)c3)nc21` [G-2, 5-(1-(Cyclobutylmethyl)-2,6-dioxo-8-(3-(trifluoromethyl)phenethyl)-1,2,6,7-tetrahydro-3H-purin-3-yl)pentanoic acid], the melting point fell in the range of 210 to 212 °C. In series [1] (Table 1), the IC50 was greater than 10 µM. In series [1] (setting [5]), the EC50 was greater than 10 µM. Besides, in series [2], the concentration for half-maximal inhibition (IC50) is greater than 10 µM. Besides, the EC50 in series [2] (Table 1) was greater than 10 µM. The EC50 in series [3] (Table 2) is greater than 10 µM.
